Test results: article PMC7337064, “Parsing the functional specificity of Siderocalin/Lipocalin 2/NGAL for siderophores and related small-molecule ligands” (Journal of Structural Biology: X, 2019)
“Also recorded” adds a separate entry of the source. Where two headings read alike, the source gives them in different places.

Tests used:
Scn [1] = biological target: T1, Scn (Homo sapiens, UniProt P80188); settings: cited from earlier work; for binding to Scn, qualitative binding assays: ref Holmes et al., 2005
T1 construct: made in house

human Scn (C87S) = biological target: T2, human Scn (C87S) (Homo sapiens, UniProt P80188, C107S); assay: crystallographic test of candidate ligand binding in the Scn calyx
T2 construct: made in house
Source text: Pseudomonas aeruginosa is a Gram-negative γ-proteobacterium which can cause acute and chronic infections ranging from septicemia, urinary infections, wound colonization, and chronic lung colonization in cystic fibrosis patients ([Cornelis and Dingemans, 2013]). P. aeruginosa produces two chemically-distinct siderophores, pyoverdine (PVD) and PCH, with relatively high or low affinities for iron, respectively. […] The quite large PVD structure would also not be expected to fit within the Scn calyx, nor would the structure of PCH-chelated iron be expected to fit within the key binding pocket, due to tight steric constraints around the iron center imposed by K125 and K134. A preliminary crystal structure of a Scn/PCH complex (3U03.pdb) was deposited in the Protein Databank (PDB, ([Berman et al., 2000])) by a structural genomics consortium. […] First, using the deposited diffraction data, it was readily apparent that the PCH ligand as modeled sat in negative electron density in difference Fourier syntheses (Fig. 7A). Second, this particular crystal form of Scn usually contains three molecules in the asymmetric unit, though only two had been modeled in the deposited structure. Using the deposited diffraction data, we re-refined the structure (Table 2), successfully placing the third Scn molecule and improving refinement statistics: Rfree/Rwork values decreased from 0.303/0.269 (3U03.pdb) to 0.253/0.235 (Table 2).
Though hexadentate catecholate siderophores have much higher complexation constants, bidentate catecholamine hormones (e.g. norepinephrine, NE) are capable of chelating iron in 3:1 complexes, and can serve to promote bacterial growth, at least in vitro ([O'Donnell et al., 2006]). […] However, no co-crystal structure was or has been subsequently reported, and the observed crystal habit was distinct from the typical tetragonal forms observed for Scn (e.g., Fig. 6B, D, and F). […] In order to resolve this discrepancy, we undertook to directly determine the Fe-NE/Scn co-crystal structure. […]

Scn(C87S/W79A/R81A) = biological target: Scn(C87S/W79A/R81A); set-up: method as in Abergel et al., 2008; settings: W79A/R81A mutation; ref Abergel et al., 2008; cited from earlier work
Scn(C87S/K125A) [2] = biological target: T3, Scn(C87S/K125A) (Homo sapiens, UniProt P80188, C107S/K145A); assay: FQ binding assay, Scn(C87S/K125A) mutant
T3 construct: made in house
Source text: (§1) Growing somewhat frustrated with our inability to fully ablate ligand binding by even fairly extensive mutation, we focused on alternate mutations involving key Pocket #1: K125A, K134A, and the combination. Both lysine side-chains contribute bracketing Coulombic, cation-π, and hydrophobic interactions to the CAM group in this calyx pocket (Fig. 1A). […] The observed < 40-fold affinity reductions were surprising, given the seemingly crucial interactions contributed by these two side-chains bracketing the key pocket.
(§2) Protein biochemistry and crystallography: Mutations were made as previously described ([Abergel et al., 2008], [Goetz et al., 2002]). All clones were confirmed by DNA sequencing. Scn proteins were expressed and purified as previously described ([Abergel et al., 2008], [Bundgaard et al., 1994], [Goetz et al., 2002]). YfiY was expressed and purified as previously described. All crystals were grown using hanging drop vapor diffusion at room temperature. […] Initial Scn structure phases were calculated from the 1L6M.pdb structure and optimized by rigid-body refinement using REFMAC5 ([Murshudov et al., 1997]), or by molecular replacement using 1L6M.pdb as the search model with PHASER ([McCoy et al., 2007]). […]

Scn [3] = biological target: Scn; set-up: method as in Li et al., 2015; settings: ref Li et al., 2015; cited from earlier work
Scn(C87S/K125A) [4] = biological target: T3, Scn(C87S/K125A); assay: qualitative binding by co-crystallization (crystal color), Scn(C87S/K125A); settings: color of complex crystals
Source text: as §1
(§3) Fig. 6 Effects of mutating proximal calyx-lining residues on ligand recognition. (A) Superpositions of the three Fe-ENT complexes in the crystallographic AU of the complex with the Scn(C87S/K125A) mutant are shown in a stereoview, oriented and styled as in Fig. 3C. […] (C) Superpositions of the three Fe-ENT complexes in the crystallographic AU of the complex with the Scn(C87S/K134A) mutant are shown in a stereoview. […]
(§4) Protein biochemistry and crystallography: Mutations were made as previously described ([Abergel et al., 2008], [Goetz et al., 2002]). […] Initial Scn structure phases were calculated from the 1L6M.pdb structure and optimized by rigid-body refinement using REFMAC5 ([Murshudov et al., 1997]), or by molecular replacement using 1L6M.pdb as the search model with PHASER ([McCoy et al., 2007]). […]

Scn(C87S/K134A) [5] = biological target: T4, Scn(C87S/K134A) (Homo sapiens, UniProt P80188, C107S/K154A); assay: qualitative binding by co-crystallization (crystal color), Scn(C87S/K134A); settings: color of complex crystals
T4 construct: made in house
Source text: as §1, §3, §4

Scn(C87S/K134A) [6] = biological target: T4, Scn(C87S/K134A); assay: FQ binding assay, Scn(C87S/K134A) mutant
Source text: as §1, §2

Scn(C87S/K125A/K134A) = biological target: T5, Scn(C87S/K125A/K134A) (Homo sapiens, UniProt P80188, C107S/K145A/K154A); assay: crystallographic analysis and qualitative co-crystallization binding trials, Scn(C87S/K125A/K134A); settings: crystals grown in the presence of Fe-ENT
T5 construct: made in house

Scn(C87S/Y106F) = biological target: Scn(C87S/Y106F); set-up: method as in Abergel et al., 2008; settings: Y106F mutation; ref Abergel et al., 2008; cited from earlier work
Scn [7] = biological target: T1, Scn; settings: ref Abergel et al., 2006a, cited from earlier work
P. aeruginosa = test system: P. aeruginosa; set-up: method as in Correnti et al., 2011; settings: in vitro; ref Correnti et al., 2011; cited from earlier work

T3 sequence (P80188 21-198 C107S/K145A): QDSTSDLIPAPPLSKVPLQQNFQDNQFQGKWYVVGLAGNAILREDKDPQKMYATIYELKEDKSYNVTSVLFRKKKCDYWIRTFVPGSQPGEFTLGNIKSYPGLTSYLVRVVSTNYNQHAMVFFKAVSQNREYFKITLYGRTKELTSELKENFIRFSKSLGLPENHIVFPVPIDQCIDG
T2 sequence (P80188 21-198 C107S): as the sequence (P80188 21-198 C107S/K145A) above, with A125K counted along it
T4 sequence (P80188 21-198 C107S/K154A): as the sequence (P80188 21-198 C107S/K145A) above, with A125K, K134A counted along it
T5 sequence (P80188 21-198 C107S/K145A/K154A): as the sequence (P80188 21-198 C107S/K145A) above, with K134A counted along it

For `CN1[C@@H]([C@H]2CSC(c3ccccc3O)=N2)SC[C@H]1C(=O)O` [PCH, pyochelin], the “binding to Scn, qualitative binding assays” value (Scn [1]) is given as “does not appreciably bind” and the “ligand binding in calyx (re-refined crystal structure)” value (human Scn (C87S); re-refinement of 3U03.pdb diffraction data, under these crystallization conditions) is given as “does not bind”.

In the case of `O=C(N[C@H]1COC(=O)[C@@H](NC(=O)c2cccc(O)c2O)COC(=O)[C@@H](NC(=O)c2cccc(O)c2O)COC1=O)c1cccc(O)c1O.[Fe]` [Fe-ENT], the Kd (Scn(C87S/W79A/R81A)) is listed as 71 nM, the Kd (Scn(C87S/K125A) [2]; FQ, huScn (K125A)) is listed as 15 ± 3 nM and the “affinity reduction versus wild-type Scn” value (Scn(C87S/K125A) [2]; K125A mutation) is listed as < 40 fold. For the same molecule, the “KD by ITC” value (Scn [3]) was “micromolar”, the “qualitative binding by co-crystallization” value (Scn(C87S/K125A) [4]) was “binding qualitatively confirmed” and the “qualitative binding by co-crystallization” value (Scn(C87S/K134A) [5]) was “binding also qualitatively confirmed”. For the same molecule, the Kd (Scn(C87S/K134A) [6]; FQ, huScn (K134A)) was 10 ± 2 nM, the “affinity reduction versus wild-type Scn” value (Scn(C87S/K134A) [6]; K134A mutation) was < 40 fold and the “ligand binding (crystal structure and co-crystallization trials)” value (Scn(C87S/K125A/K134A)) was “lack of ligand binding; also recorded: fully ablating ligand binding”. For the same molecule, the Kd (Scn(C87S/Y106F)) was 20 nM and the Kd (Scn [7]; wild-type Scn, Abergel et al., 2008, Goetz et al., 2002) was 0.4 nM.

In the case of `O=C(O)c1ccc(O)c(O)c1` [3,4-DHBA], the “binding to Scn” value (Scn [1]; ref Correnti et al., 2012) is given as “do not bind”.

With `NC[C@H](O)c1ccc(O)c(O)c1` [NE, norepinephrine] the “ligand electron density in difference Fourier syntheses” value (human Scn (C87S); co-crystallized with 2:1:1 2,3-DHBA:NE:iron complexes) was “did not show difference features distinct from the previously-determined Scn:2,3-DHBA:iron complex structure” and the “ligand electron density in difference Fourier syntheses” value (human Scn (C87S); crystals grown with stoichiometric 3:1 NE:iron mixtures) was “did not show electron density features assignable to iron or ligand atoms”.

For `O=C(N[C@H]1COC(=O)[C@@H](NC(=O)c2cccc(O)c2O)COC(=O)[C@@H](NC(=O)c2cccc(O)c2O)COC1=O)c1cccc(O)c1O` [apo-ENT, enterobactin/enterochelin], the Kd (Scn [7]; apo ligand (no iron)) is given as 3.6 nM.

In the case of pyoverdine [PVD], the “binding to Scn, qualitative binding assays” value (Scn [1]) is given as “does not appreciably bind”.

B1: Scn: glycoprotein Siderocalin, innate immune system protein with bacteriostatic activity (protein, UniProt P80188 21-198, looked up)
Neutrophil …: QDSTSDLIPAPPLSKVPLQQNFQDNQFQGKWYVVGLAGNAILREDKDPQKMYATIYELKEDKSYNVTSVLFRKKKCDYWIRTFVPGCQPGEFTLGNIKSYPGLTSYLVRVVSTNYNQHAMVFFKKVSQNREYFKITLYGRTKELTSELKENFIRFSKSLGLPENHIVFPVPIDQCIDG
For B1, the “growth arrest of P. aeruginosa” value (P. aeruginosa) is given as “does not arrest the growth”.
